Assay results reported in patent publication US20130115256A1, “METHODS FOR TREATING OR PREVENTING VASCULAR GRAFT FAILURE” (priority 2010, published 2013).

Legend:
[1] = system: JNK; experiment: JNK radiometric kinase assay; assay type: biochemical; conditions: MMI-0100 100 μM; remaining kinase activity
Excerpt: A commercial radiometric assay service was used to test the specificity and potency of MMI-0100 ([…]; SEQ ID NO: 1) by measuring its half maximal inhibitory concentrations (IC50). This quantitative assay measures how much MK2 inhibitor (MMI-0100; […] (SEQ ID NO: 1)) is needed to inhibit 50% of a given biological process or component of a process (i.e., an enzyme, cell, or cell receptor). Specifically, in these assays, a positively charged substrate is phosphorylated with a radiolabeled phosphate group from an ATP if the kinase is not inhibited by an inhibitor peptide. The positively charged substrate then is attracted to a negatively charged filter membrane, quantified with a scintillation counter, and compared to a 100% activity control. ATP concentrations within 15 μM of the apparent Km for ATP were chosen since an ATP concentration near the Km may allow for the kinases to have the same relative amount of phosphorylation activity. […]
For the JNK (c-Jun N-terminal Kinase) radiometric assay, 5-10 mU of JNK was incubated with 50 mM Tris pH 7.5, 0.1 mM EGTA, 0.1% b-mercaptoethanol, 3 μM ATF2 (a substrate for JNK), 10 mM MgAcetate, and 10 μM of [y-^33P-ATP] in the final reaction volume of 25 μl. […] The washed P30 filtermat was dried and its radioactivity was measured by scintillation counter.
IC50 values for inhibitor peptides were determined using Millipore's IC50 Profiler Express service. […]

[2] = target: T1, MKK4 (Homo sapiens, UniProt P45985); experiment: MKK4 radiometric kinase assay; assay type: biochemical; conditions: MMI-0100 100 μM; remaining kinase activity
T1 construct: purchased Millipore (KinaseProfiler service)
T1 sequence (P45985 1-399): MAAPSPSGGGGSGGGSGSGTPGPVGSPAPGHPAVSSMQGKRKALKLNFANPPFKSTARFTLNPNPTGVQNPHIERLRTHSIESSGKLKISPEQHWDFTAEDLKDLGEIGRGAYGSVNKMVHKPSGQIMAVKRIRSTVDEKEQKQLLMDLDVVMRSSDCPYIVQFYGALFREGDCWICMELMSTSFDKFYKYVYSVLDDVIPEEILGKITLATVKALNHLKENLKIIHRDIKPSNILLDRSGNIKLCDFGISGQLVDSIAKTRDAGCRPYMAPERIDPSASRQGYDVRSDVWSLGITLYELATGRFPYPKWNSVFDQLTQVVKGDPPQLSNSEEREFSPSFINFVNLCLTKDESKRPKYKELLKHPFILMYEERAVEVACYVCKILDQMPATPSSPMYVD
Excerpt: A commercial radiometric assay service was used to test the specificity and potency of MMI-0100 ([…]; SEQ ID NO: 1) by measuring its half maximal inhibitory concentrations (IC50). This quantitative assay measures how much MK2 inhibitor (MMI-0100; […] (SEQ ID NO: 1)) is needed to inhibit 50% of a given biological process or component of a process (i.e., an enzyme, cell, or cell receptor). Specifically, in these assays, a positively charged substrate is phosphorylated with a radiolabeled phosphate group from an ATP if the kinase is not inhibited by an inhibitor peptide. The positively charged substrate then is attracted to a negatively charged filter membrane, quantified with a scintillation counter, and compared to a 100% activity control. ATP concentrations within 15 μM of the apparent Km for ATP were chosen since an ATP concentration near the Km may allow for the kinases to have the same relative amount of phosphorylation activity. The individual conditions for each radiometric assay are as follows.
The reaction was initiated by the addition of the MgATP. After incubation for 40 minutes at room temperature, 5 μl of the incubation mix was used to initiate the JNK radiometric assay described above.
IC50 values for inhibitor peptides were determined using Millipore's IC50 Profiler Express service. The IC50 value was estimated from a 10-point curve of one-half log dilutions. […]

[3] = system: mouse lung endothelial cells (MLEC); experiment: NO analysis (nitrite chemiluminescence); assay type: cell-based; conditions: physiological doses; 24 hours
Description: To measure nitric oxide (NO) production, conditioned medium from mouse lung endothelial cells (MLEC) was examined at 24 hours after treatment with MMI-0100 ([…]; SEQ ID NO: 1). The medium was processed for the measurement of nitrite (NO2) by a NO-specific chemiluminescence analyzer (Sievers) as previously described (Muto, A. et al., J. Exp. Med., 2011, 208(3): 561-575, incorporated herein by reference in its entirety.).

## YARAAARQARAKALARQLGVAA [MMI-0100]
[1]
  Percent Activity, JNK: 92%
[2]
  Percent Activity, MKK4: 90%
[3]
  Nitric oxide (NO) production: not suppressed, and was even enhanced
